Results published in patent US4783402A, “Production of primary or secondary alcohol derivatives of phospholipids by the enzymatic technique” (Meito Sangyo Kabushiki Kaisha, priority 1983, dated 1988).

How the values were obtained:
[1] = system: phospholipase DM derived from the Actinomadura strain (Actinomadura sp. No. 362, FERM-P No. 6132; BP 511); assay: Influences of various substances on enzyme activity (choline oxidase method, egg-yolk lecithin substrate); type: biochemical; settings: substance at 1 mM in the enzyme reaction system, added instead of the aqueous calcium chloride solution; lecithin emulsion, Tris-HCl pH 7.2, 37° C., 20 minutes
Description: (§1) The enzyme activity of the phospholipase DM utilized in the process of this invention is determined by measuring the amount of a base which is formed when the phospholipase DM acts on the substrate glycerophospholipid to decompose the ester linkage between phosphoric acid and the nitrogen-containing base. Unless otherwise indicated, the activity of phospholipase DM is measured by the choline oxidase method to be described hereinafter.
(§2) Distilled water (0.15 ml), 0.1 ml of 0.2M Tris-HCl buffer (pH 7.2) and 0.05 ml of 0.1M aqueous calcium chloride solution are mixed with 0.1 ml of 1% emulsion of purified lecithin from egg yolk (an emulsion of 0.1 g of lecithin, 1 ml of ethyl ether and 10 ml of distilled water obtained by ultrasonication). To the mixture is added 0.1 ml of an enzyme solution and reacted at 37° C. for 20 minutes. Then, 0.2 ml of 1M Tris-HCl buffer (pH 8.0) containing 50 mM disodium ethylenediamine tetraacetate, and immediately then, the mixture is boiled for 5 minutes, followed by completely stopping the reaction. Then, 4 ml of a solution obtained by dissolving a choline color-forming agent contained in a kit of a reagent for choline esterase measurement (produced by Nippon Shoji Co., Ltd.) in a color dissolving liquid is added, and reacted at 37° C. for 20 minutes. Then, the absorbance of the reaction solution at 500 nm is measured.
(§3) As a control, the absorbance of the product obtained by the same procedure as above except that an enzyme solution previously deactivated by heat is used.
(§4) The activity of the enzyme to liberate 1 micromole of choline per minute is defined as one unit.
(§5) In the method of measuring the activity of the enzyme described hereinabove, 0.05 ml of an aqueous solution of each of various substances is added instead of the aqueous calcium chloride solution so that its concentration in the enzyme reaction system becomes 1 mM. The activity of the enzyme is then measured. The activity of the enzyme at the time of adding water is taken as 100, and the relative activity of the enzyme is determined.

[2] = system: phospholipase DM derived from the Nocardiopsis strain (Nocardiopsis sp. No. 779, FERM-P No. 6133; BP 512); assay: as above; type: biochemical; settings: substance at 1 mM in the enzyme reaction system, added instead of the aqueous calcium chloride solution; lecithin emulsion, Tris-HCl pH 7.2, 37° C., 20 minutes
Description: as §1, §2, §3, §4, §5

| SMILES | influence on the activity of the enzyme (relative activity, activity at the time of adding water taken as 100) [1] | influence on the activity of the enzyme (relative activity, activity at the time of adding water taken as 100) [2] |
| --- | --- | --- |
| CCO [ethanol] | activating action | activating action |
| CC(C)O [isopropanol] | activating action | activating action |
| CC(C)(C)O [t-butanol] | activating action | activating action |
